{
  "source": "patent US11660319B2",
  "about": "“Compositions comprising bacterial strains” (priority 2017, dated 2023)",
  "key": {"[1]": {"experiment": "ABTS antioxidant capacity assay of bacterial cell lysate", "conditions": "compared to Trolox", "experimental": "Bacterial cells (10^6 or greater) were collected and centrifuged. They were resuspended in assay buffer (using three times the pellet volume). The suspension was sonicated on ice for 5 minutes and then spun down at 12,000×g for 10 minutes. The supernatant was removed and measured using the ABTS assay kit produced by Sigma Aldrich (code CS0790), in accordance with manufacturer's instructions."}, "HDAC2": {"target": "T1, HDAC2 (Homo sapiens, UniProt Q92769)", "T1 construct": "purchased BPS Bioscience, CA", "T1 sequence (Q92769 whole entry)": "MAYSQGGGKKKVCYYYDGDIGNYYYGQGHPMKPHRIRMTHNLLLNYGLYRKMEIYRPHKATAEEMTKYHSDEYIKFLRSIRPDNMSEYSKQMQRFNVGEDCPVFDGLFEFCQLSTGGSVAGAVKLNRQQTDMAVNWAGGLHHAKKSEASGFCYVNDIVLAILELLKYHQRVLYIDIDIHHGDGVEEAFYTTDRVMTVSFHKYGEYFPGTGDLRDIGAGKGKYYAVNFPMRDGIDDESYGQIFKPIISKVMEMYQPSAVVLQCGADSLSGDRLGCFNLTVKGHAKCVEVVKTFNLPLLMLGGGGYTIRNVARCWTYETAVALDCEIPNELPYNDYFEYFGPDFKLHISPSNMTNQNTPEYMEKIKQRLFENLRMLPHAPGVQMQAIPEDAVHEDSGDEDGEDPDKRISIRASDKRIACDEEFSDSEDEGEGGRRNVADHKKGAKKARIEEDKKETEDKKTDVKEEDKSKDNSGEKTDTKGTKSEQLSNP", "experiment": "Specific HDAC activity analysis (fluorogenic assay kit, BPS Bioscience)", "type": "biochemical", "conditions": "cell free supernatant diluted 1 in 10", "experimental": "(§1) Specific HDAC inhibition activity was analysed for HDAC1, 2, 3, 4, 5, 6, 9 using fluorogenic assay kits for each type of HDAC (BPS Bioscience, CA). Assays were conducted according to manufacturer's instructions and each sample were performed in replicates. Cell free supernatants were diluted 1 in 10 and exposed to specific HDAC proteins provided in the kit to maintain consistency between methods."}, "HDAC3": {"target": "T2, HDAC3 (Homo sapiens, UniProt O15379)", "T2 construct": "purchased BPS Bioscience, CA", "T2 sequence (O15379 whole entry)": "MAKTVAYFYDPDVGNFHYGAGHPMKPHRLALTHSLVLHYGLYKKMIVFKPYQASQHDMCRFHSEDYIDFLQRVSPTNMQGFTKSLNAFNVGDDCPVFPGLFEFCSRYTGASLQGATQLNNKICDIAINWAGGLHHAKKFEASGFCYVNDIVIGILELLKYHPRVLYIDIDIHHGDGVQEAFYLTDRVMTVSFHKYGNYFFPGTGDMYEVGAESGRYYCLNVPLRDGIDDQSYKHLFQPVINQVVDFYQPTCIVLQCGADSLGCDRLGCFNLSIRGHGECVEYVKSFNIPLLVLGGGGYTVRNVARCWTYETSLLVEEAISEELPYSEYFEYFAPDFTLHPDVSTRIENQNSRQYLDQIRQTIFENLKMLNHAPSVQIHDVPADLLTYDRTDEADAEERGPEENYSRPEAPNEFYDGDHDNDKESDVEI", "T2 sequence (Q9Y618 395-489 partner limits assumed)": "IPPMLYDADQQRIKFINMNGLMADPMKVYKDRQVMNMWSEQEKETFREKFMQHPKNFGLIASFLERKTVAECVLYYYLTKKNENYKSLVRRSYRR", "experiment": "Specific HDAC activity analysis (fluorogenic assay kit, BPS Bioscience)", "type": "biochemical", "conditions": "cell free supernatant diluted 1 in 10", "experimental": "as §1"}, "HDAC1": {"target": "T3, HDAC1 (Homo sapiens, UniProt Q13547)", "T3 construct": "purchased BPS Bioscience, CA", "T3 sequence (Q13547 whole entry)": "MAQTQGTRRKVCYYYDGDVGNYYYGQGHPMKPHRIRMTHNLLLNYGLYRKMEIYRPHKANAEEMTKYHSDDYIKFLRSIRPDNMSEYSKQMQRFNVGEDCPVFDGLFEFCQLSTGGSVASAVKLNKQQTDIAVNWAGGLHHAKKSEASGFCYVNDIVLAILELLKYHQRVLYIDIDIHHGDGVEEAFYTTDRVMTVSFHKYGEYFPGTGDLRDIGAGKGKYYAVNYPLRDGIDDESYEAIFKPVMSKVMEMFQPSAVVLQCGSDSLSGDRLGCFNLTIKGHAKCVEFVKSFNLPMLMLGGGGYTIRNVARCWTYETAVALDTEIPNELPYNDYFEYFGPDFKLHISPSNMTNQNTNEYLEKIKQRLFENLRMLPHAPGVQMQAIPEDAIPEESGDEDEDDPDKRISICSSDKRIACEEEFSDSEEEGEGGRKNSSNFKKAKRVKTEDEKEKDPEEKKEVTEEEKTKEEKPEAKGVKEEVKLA", "experiment": "Specific HDAC activity analysis (fluorogenic assay kit, BPS Bioscience)", "type": "biochemical", "conditions": "cell free supernatant diluted 1 in 10", "experimental": "as §1"}, "class II HDACs": {"system": "class II HDACs", "experiment": "Specific HDAC activity analysis (fluorogenic assay kit, BPS Bioscience)", "type": "biochemical", "conditions": "data not shown", "experimental": "as §1\nThe specific HDAC inhibition profile of the test bacteria strain was investigated. Specific HDAC inhibition assays (BPS Bioscience, CA) were carried out for Class I and Class II HDACs. The ability of the bacterial strain to inhibit HDAC enzymes was compared to butyrate, hexanoic and valeric acid (FIGS. 14 and 15)."}, "[2]": {"experiment": "Lipid peroxidation, thiobarbituric reactive substances assay (TBARs)", "conditions": "positive control butylated hydroxytoluene (1% w/v)", "experimental": "Bacterial cells (10^6 or greater) were collected and centrifuged, a wash step was performed with isotonic saline before the pellet was re-suspended in potassium chloride assay buffer. The suspension was sonicated on ice for 10 minutes and then spun down at 10,000×g for 10 minutes. The supernatant was removed and the level of lipid peroxidation evaluated using the thiobarbituric reactive substances assay."}, "BALBc mice": {"system": "BALBc mice", "experiment": "Gene expression in hippocampus, amygdala and prefrontal cortex (qPCR)", "type": "in vivo, mouse", "conditions": "amygdala", "experimental": "Animals were allowed to habituate to their holding room for one week after arrival into the animal unit. They receive oral gavage (200 μL dose) of live biotherapeutics at a dose of 1×10^9 CFU for 6 consecutive days between 15:00 and 17:00. On day 7, the animals are decapitated, and tissues are harvested for experimentation.\nTotal RNA was extracted using the mirVana™ miRNA Isolation kit (Ambion/Llife technologies, Paisley, UK) and DNase treated (Turbo DNA-free, Ambion/life technologies) according to the manufacturers recommendations. RNA was quantified using NanoDrop™ spectrophotometer (Thermo Fisher Scientific Inc., Wilmington, Del., USA) according to the manufacturer's instructions. RNA quality was assessed using the Agilent Bioanalyzer (Agilent, Stockport, UK) according to the manufacturer's procedure and an RNA integrity number (RIN) was calculated. RNA with RIN value >7 was used for subsequent experiments. RNA was reverse transcribed to cDNA using the Applied Biosystems High Capacity cDNA kit (Applied Biosystems, Warrington, UK) according to manufacturer's instructions. Briefly, Multiscribe Reverse Transcriptase (50 U/μL) (1)(2)(1)(10) was added as part of RT master mix, incubated for 25° C. for 10 min, 37° C. for 2 h, 85° C. for 5 min and stored at 4° C. Quantitative PCR was carried out using probes (6 carboxy fluorescein-FAM) designed by Applied Biosystems to mouse specific targeted genes, while using β-actin as an endogenous control. Amplification reactions contained 1 μl cDNA, 5 μl of the 2× PCR Master mix (Roche), 900 nM of each primer and were brought to a total of 10 μl by the addition of RNase-free water. All reactions were performed in triplicate using 96-well plates on the LightCycler®480 System. Thermal cycling conditions were as recommended by the manufacturer (Roche) for 55 cycles. To check for amplicon contamination, each run contained no template controls in triplicate for each probe used. Cycle threshold (Ct) values were recorded. Data was normalized using β-actin and transformed using the 2-ΔΔCT method and presented as a fold change vs. control group.\nExpression of genes for neurotransmitter receptors [serotonin receptor 1a(5-HTR1a), dopamine D1 receptor, GABA receptor subunit B1, GABAA receptor, NMDA2A (Grin2A) and NMDA2B (Grin2b) receptor], inflammatory markers [IL-1β, IL6, CD11b, TNFα and TLR4], and endocrine markers [corticosterone releasing factor (CRF), corticosterone releasing factor receptors 1 and 2 (CRFR1, CRFR2), brain-derived neurotrophin factor (BDNF), vasopressin receptor, oxytocin receptor, glucocorticoid receptor and mineralocorticoid receptor] were analysed in brain tissue from the hippocampus, amygdala and prefrontal cortex."}, "[3]": {"system": "differentiated neuroblasoma cells", "experiment": "BDNF secretion in SHSY-5Y cells", "type": "cell-based, human", "conditions": "in combination with retinoic acid (10 μM, differentiation); 50 μl bacteria SN", "experimental": "SH-SY5-SY were plated in 24 wells plate at density of 60,000 cells/well and placed in the incubator. After 24 h, media were replaced with differentiation medium (growth medium containing 1% FBS) and 10 μM retinoic acid. Differentiation medium was replaced every other day and cells were used on day 10 of differentiation. For the treatment differentiation medium was removed and replaced with 450 ul of full growth media and 50 μl of bacteria SN was added to the treated wells or YCFA+ was added as negative Control."}},
  "data": [
    {"substance": "Megasphaera massiliensis [MRx0029]", "values": [
      {"measurement": "antioxidant capacity", "setting": "[1]", "result": "approximately 2 mM"},
      {"measurement": "HDAC2 inhibition", "setting": "HDAC2", "result": "very potent inhibitor"},
      {"measurement": "HDAC3 inhibition", "setting": "HDAC3", "result": "very potent inhibitor"},
      {"measurement": "HDAC1 inhibition", "setting": "HDAC1", "result": "very potent inhibitor"},
      {"measurement": "Inhibition of class II HDACs", "setting": "class II HDACs", "result": "not as significant"},
      {"measurement": "inhibition of lipid peroxidation", "setting": "[2]", "result": "approximately 20%"},
      {"measurement": "expression of CD11b", "setting": "BALBc mice", "result": "increase"},
      {"measurement": "expression of GABBR1", "setting": "BALBc mice", "result": "increased"},
      {"measurement": "expression of GABRA2", "setting": "BALBc mice", "result": "significantly increased"},
      {"measurement": "expression of TLR4", "setting": "BALBc mice", "result": "significantly increased"},
      {"measurement": "glucocorticoid receptor expression", "setting": "BALBc mice", "result": "increase"},
      {"measurement": "secretion of BDNF", "setting": "[3]", "result": "increases"}
    ]}
  ]
}
